Test results: patent publication US7534809B2, “Phospho-indoles as HIV inhibitors” (priority 2004, dated 2009)
Converted amounts (≈) assume the structure as drawn. Read-outs that look alike come from different tables or passages of the source. Marks after values point to notes of the source that are not given here.

Experiments:
[1] = Human plasma protein binding, equilibrium dialysis; assay type: in vitro ADME; details: pooled human plasma, 37° C., about 6 hours, 1 μM drug, read-out: Protein binding (human plasma) % Free
Experimental: The human plasma protein binding was determined using the Equilibrium Dialysis method. Dialysis was conducted with pooled human plasma at 37° C. for approximately 6 hours at a drug concentration of 1 μM. At the end of the dialysis, buffer samples from the buffer-side of the dialysis cell were collected and analyzed by LC/MS/MS for free drug concentration. For NNRTIs, a lower protein binding is more desirable.

CYP3A4 = biological target: T1, CYP3A4 (Homo sapiens, UniProt P08684); experiment: CYP450 inhibition, CYP3A4/BFC screening kit; assay type: in vitro ADME
T1 construct: purchased BD Biosciences
Text: (§1) In vitro CYP450 inhibition screening allows for the prediction of potential drug-drug interactions. […] Potency and rank order of the inhibition can be assessed by determination of the IC50 values for a particular isozyme.
(§2) CYP3A4 inhibition was screened using the CYP3A4/BFC high throughput inhibitor screening kit (BD Biosciences), CYP2D6 inhibition was screened using the CYP2D6/AMMC high throughput inhibitor screening kit (BD Biosciences), and CYP2C9 inhibition was screened using the P450-Glo™ Assay kit (Promega).

CYP2D6 = biological target: T2, CYP2D6 (Homo sapiens, UniProt P10635); experiment: CYP450 inhibition, CYP2D6/AMMC screening kit; assay type: in vitro ADME
T2 construct: purchased BD Biosciences
Text: as §1, §2

CYP2C9 = biological target: T3, CYP2C9 (Homo sapiens, UniProt P11712); experiment: CYP450 inhibition, CYP2C9 P450-Glo assay kit; assay type: in vitro ADME
T3 construct: purchased Promega
Text: as §1, §2

[2] = Metabolic stability in human liver microsomes; assay type: in vitro ADME; details: 10 μM, 1 mg/mL microsomes, 37° C.
Text: (§3) The metabolic stability assay is to evaluate the stability of test compound in biological matrices. Data are useful in terms of understanding and predicting the elimination mechanisms of the test compound. CYP450-dependent metabolism of drugs can also vary widely from one species to another. Evaluating in vitro metabolism of a drug by liver microsomes from multiple species allows the comparison of metabolism in animal species to that of humans. This can help identify the most relevant animal model for PK and toxicology studies. The metabolic stability of a test compound was evaluated in vitro in liver microsomes of the rat, dog, monkey, and human. 10 μM of the test compound was pre-incubated for 5 min at 37° C. with 1 mg/mL liver microsomes in 0.1M Tris buffer, pH 7.4 containing 5 mM MgCl2 and 0.1 mM EDTA. Following pre-incubation, NADPH (final concentration of 3 mM) was added to start the reaction and samples incubated for 0 and 1 or 2 hours. After terminating the reaction, the supernatant was analyzed by HPLC-UV or LC/MS/MS for the disappearance of the parent and formation of metabolite(s). The %parent remaining was the peak area ratio of the 1 or 2 hr sample to the time 0 sample. In general, less metabolism (higher % parent values) is more desirable.

[3] = Metabolic stability in rat liver microsomes; assay type: in vitro ADME; details: 10 μM, 1 mg/mL microsomes, 37° C.
Text: as §3

[4] = Metabolic stability in dog liver microsomes; assay type: in vitro ADME; details: 10 μM, 1 mg/mL microsomes, 37° C.
Text: as §3

[5] = Metabolic stability in monkey liver microsomes; assay type: in vitro ADME; details: 10 μM, 1 mg/mL microsomes, 37° C.
Text: as §3

[6] = In vitro metabolism in liver microsomes, metabolic pathway; assay type: in vitro ADME, rat, dog, monkey, and human; details: LC/MS/MS metabolite profiling
Experimental: Phase I biotransformation of a test compound is evaluated in this assay. Samples from the metabolic stability experiment were analyzed by LC/MS/MS for metabolite profiling and identification. Structures of metabolites were elucidated based on multiple MS/MS experiments such as full scan, neutral loss scan, and product ion scan. Metabolic pathways were then postulated based on the structures of major metabolites. For compounds from the phosphinate series, N-oxidation of the terminal pyridine ring is the predominant pathway, followed by the oxidation of the dimethyl-phenyl group, where the methyl group(s) is hydroxylated, further oxidized to an aldehyde, and finally to a carboxylic acid. The elucidation of metabolic pathways is important in terms of understanding the elimination mechanism of a test compound and assisting the design of new molecules with improved DM-PK profiles.

[7] = pH dependent aqueous solubility, shake-flask method; assay type: physicochemical; details: aqueous solution, thermodynamic from solid, saturated concentration 1 mM
Experimental: The aqueous solubility of each compound was determined by the conventional shake-flask method at a saturated concentration of 1 mM. The flask (vial) was shaken for 3 hrs at ambient temperature, and then centrifuged. The supernatant was analyzed by HPLC with UV detection for solubility determination. In general, a higher aqueous solubility is more desirable for drug candidates.

[8] = PK and oral bioavailability in the rat; assay type: in vivo, Sprague-Dawley rats; details: IV, 1.0 mg/kg
Experimental: (§4) The pharmacokinetics of a test compound was evaluated in Sprague-Dawley rats and Beagle dogs. A typical PK study involved dosing of 2 to 3 animals via a single IV bolus injection at 1 mg/kg and another 3 animals via a single oral gavage at 5 mg/kg. Blood samples were collected at various time points over a 24-hr period. Plasma was separated and analyzed for test compound and its metabolite(s) by LC/MS/MS. PK parameters were calculated from the plasma concentration—time profile using a noncompartmental method. Oral bioavailability (F) was calculated based on dose-normalized AUC values from oral and IV administration. Higher oral bioavailability values are better.

[9] = PK and oral bioavailability in the dog; assay type: in vivo, Beagle dogs; details: for half-life: PEG400, read-out: T½ (converted)
Experimental: as §4

[10] = pH 1, simulated gastric fluid, pH1, ambient temperature, read-out: Aqueous solubility pH1
[11] = pH 3, aqueous buffer, pH3, ambient temperature, read-out: Aqueous solubility pH3
[12] = pH 7, aqueous buffer, pH7, ambient temperature, read-out: Aqueous solubility pH7
[13] = pH 9, aqueous buffer, pH9, ambient temperature, read-out: Aqueous solubility pH9
[14] = Beagle, plasma, IV, 1.0 mg/kg, PEG400
[15] = Beagle, plasma, PO, 5.0 mg/kg, PEG400

T2 sequence (P10635 whole entry): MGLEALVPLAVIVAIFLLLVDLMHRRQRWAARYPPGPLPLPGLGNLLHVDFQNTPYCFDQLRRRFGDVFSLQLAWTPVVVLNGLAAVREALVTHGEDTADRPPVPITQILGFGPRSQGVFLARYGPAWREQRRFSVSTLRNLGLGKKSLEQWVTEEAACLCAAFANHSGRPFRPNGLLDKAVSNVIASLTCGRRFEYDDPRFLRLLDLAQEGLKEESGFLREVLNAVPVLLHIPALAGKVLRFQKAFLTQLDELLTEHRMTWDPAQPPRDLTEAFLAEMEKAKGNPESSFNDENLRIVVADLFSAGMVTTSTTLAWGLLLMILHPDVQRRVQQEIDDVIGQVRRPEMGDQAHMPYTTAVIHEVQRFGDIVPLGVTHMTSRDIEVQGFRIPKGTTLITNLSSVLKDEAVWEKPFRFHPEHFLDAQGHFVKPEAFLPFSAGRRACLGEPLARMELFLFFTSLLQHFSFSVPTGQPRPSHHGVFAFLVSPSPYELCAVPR
T3 sequence (P11712 whole entry): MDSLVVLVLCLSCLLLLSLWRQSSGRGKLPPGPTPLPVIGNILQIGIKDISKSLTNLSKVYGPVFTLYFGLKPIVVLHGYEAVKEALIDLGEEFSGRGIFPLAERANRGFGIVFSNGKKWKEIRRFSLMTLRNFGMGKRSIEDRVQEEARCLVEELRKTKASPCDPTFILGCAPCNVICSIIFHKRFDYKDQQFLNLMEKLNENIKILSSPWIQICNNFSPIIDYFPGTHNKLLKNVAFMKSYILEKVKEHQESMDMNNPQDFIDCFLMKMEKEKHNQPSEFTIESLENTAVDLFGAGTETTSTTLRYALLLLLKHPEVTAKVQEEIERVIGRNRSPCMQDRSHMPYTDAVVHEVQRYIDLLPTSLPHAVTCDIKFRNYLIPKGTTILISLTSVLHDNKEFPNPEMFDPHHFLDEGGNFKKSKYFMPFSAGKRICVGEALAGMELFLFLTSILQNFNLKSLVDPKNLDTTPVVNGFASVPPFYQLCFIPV
T1 sequence (P08684 whole entry): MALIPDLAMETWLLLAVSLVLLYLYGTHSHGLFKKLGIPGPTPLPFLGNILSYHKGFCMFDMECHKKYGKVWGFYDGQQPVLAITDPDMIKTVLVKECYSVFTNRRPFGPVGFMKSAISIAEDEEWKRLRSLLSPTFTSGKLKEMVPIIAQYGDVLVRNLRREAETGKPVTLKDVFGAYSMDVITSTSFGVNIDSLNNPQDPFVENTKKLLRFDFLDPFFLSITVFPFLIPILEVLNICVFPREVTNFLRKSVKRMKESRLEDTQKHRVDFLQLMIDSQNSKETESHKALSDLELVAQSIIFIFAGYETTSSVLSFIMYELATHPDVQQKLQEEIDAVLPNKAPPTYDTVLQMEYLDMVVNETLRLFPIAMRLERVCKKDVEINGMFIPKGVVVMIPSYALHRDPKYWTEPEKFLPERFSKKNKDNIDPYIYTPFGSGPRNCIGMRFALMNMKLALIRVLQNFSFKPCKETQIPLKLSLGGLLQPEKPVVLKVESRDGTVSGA

## COP(=O)(c1cc(C)cc(F)c1)c1c(C(=O)NCc2cc[n+]([O-])cc2)[nH]c2ccc(Cl)cc12 (centres unmarked) [Compound G]
[1]
  fraction unbound at 6 h, 1 μM: 0.016
CYP3A4
  IC50: 1140 nM
CYP2D6
  IC50: > 10000 nM
CYP2C9
  IC50: 8850 nM
[2]
  Metabolic stability in liver microsomes % Parent after 2 hrs, Human: 85%
[3]
  Metabolic stability in liver microsomes % Parent after 2 hrs, Rat: 24%
[4]
  Metabolic stability in liver microsomes % Parent after 2 hrs, Dog: 77%
[5]
  Metabolic stability in liver microsomes % Parent after 2 hrs, Monkey: 41%
[6]
  Metabolic pathway (in vitro): Hydroxylation to CH3OH— to CHO— to COOH—

## COP(=O)(C1=C(C(=O)NCc2ccncc2)N=C2C=CC(Cl)=C(F)C21)c1cc(C)cc(C)c1 (centres unmarked) [Compound O]
[7]; [10]
  solubility at 3 h: 820 µM (≈ 398 µg/mL)
[7]; [11]
  solubility at 3 h: 590 µM (≈ 287 µg/mL)
[7]; [12]
  solubility at 3 h: 9.1 µM (≈ 4.42 µg/mL)
[7]; [13]
  solubility at 3 h: 10.1 µM (≈ 4.91 µg/mL)
[1]
  fraction unbound at 6 h, 1 μM: 0.009
CYP3A4
  IC50: 810 nM
CYP2D6
  IC50: 1350 nM
CYP2C9
  IC50: 5350 nM
[2]
  Metabolic stability in liver microsomes % Parent after 2 hrs, Human: 15%
[3]
  Metabolic stability in liver microsomes % Parent after 2 hrs, Rat: 2%
[4]
  Metabolic stability in liver microsomes % Parent after 2 hrs, Dog: 29%
[5]
  Metabolic stability in liver microsomes % Parent after 2 hrs, Monkey: 1%

## COP(=O)(C1=C(C(=O)NCc2ccncc2)N=C2C=CC(Cl)=CC21)c1cc(C)cc(C)c1 (centres unmarked) [Compound N]
[7]; [10]
  solubility at 3 h: > 1000 µM
[7]; [11]
  solubility at 3 h: 231 µM (≈ 108 µg/mL)
[7]; [12]
  solubility at 3 h: 2.1 µM (≈ 0.983 µg/mL)
[7]; [13]
  solubility at 3 h: 1.7 µM (≈ 0.795 µg/mL)
[1]
  fraction unbound at 6 h, 1 μM: 0.002
CYP3A4
  IC50: 660 nM
CYP2D6
  IC50: 2040 nM
[2]; 1 hr (footnote *)
  Metabolic stability in liver microsomes % Parent after 1 hr incubation, Human: 22%*
[3]; 1 hr (footnote *)
  Metabolic stability in liver microsomes % Parent after 1 hr incubation, Rat: 1%*
[4]; 1 hr (footnote *)
  Metabolic stability in liver microsomes % Parent after 1 hr incubation, Dog: 24%*
[5]; 1 hr (footnote *)
  Metabolic stability in liver microsomes % Parent after 1 hr incubation, Monkey: 1%*
[8]; PEG400
  AUCinf/Dose: 125.9
  CI: 133.2 mL/min/kg
[8]; Sprague-Dawley, plasma, PEG400
  AUC(0-inf): 126 ng·h/mL
  AUC(0-t): 108 ng·h/mL
  Cmax: 119 ng/mL
[8]; Sprague-Dawley, plasma, PEG400, read-out: T½ (converted)
  half-life: 0.9 h
[8]; Sprague-Dawley, plasma, PEG400, read-out: Vss
  Vd: 9.59 L/kg
[9]; [14]
  AUC(0-inf): 970 ng·h/mL
  AUC(0-t): 924 ng·h/mL
  Cmax: 407 ng/mL
[9]; Beagle, plasma, IV, 1.0 mg/kg
  half-life: 4.2 h
[9]; Beagle, plasma, IV, 1.0 mg/kg, PEG400, read-out: Vss
  Vd: 4.08 L/kg
[9]; [15]
  AUC(0-inf): 139 ng·h/mL
  AUC(0-t): 116 ng·h/mL
  Cmax: 60.9 ng/mL
  Tmax: 0.7 h
[9]; Beagle, plasma, PO, 5.0 mg/kg
  half-life: 2.8 h
[9]; IV, 1.0 mg/kg, PEG400
  AUCinf/Dose: 970.1
  CI: 19.872 mL/min/kg
[9]; PO, 5.0 mg/kg, PEG400
  AUCinf/Dose: 27.7
[9]; PO, 5.0 mg/kg, PEG400, oral bioavailability
  F: 2.9%

## COP(=O)(c1cc(C)cc(C)c1)c1c(C(=O)NCc2cc[n+]([O-])cc2)[nH]c2ccc(Cl)c(F)c12 (centres unmarked) [Compound B]
[7]; [10]
  solubility at 3 h: 190 µM (≈ 95.4 µg/mL)
[7]; [11]
  solubility at 3 h: 170 µM (≈ 85.3 µg/mL)
[7]; [12]
  solubility at 3 h: 200 µM (≈ 100 µg/mL)
[7]; [13]
  solubility at 3 h: 190 µM (≈ 95.4 µg/mL)
[1]
  fraction unbound at 6 h, 1 μM: 0.038
CYP3A4
  IC50: 1040 nM
CYP2D6
  IC50: > 10000 nM
CYP2C9
  IC50: > 10000 nM
[2]
  Metabolic stability in liver microsomes % Parent after 2 hrs, Human: 94%
[3]
  Metabolic stability in liver microsomes % Parent after 2 hrs, Rat: 1%
[4]
  Metabolic stability in liver microsomes % Parent after 2 hrs, Dog: 85%
[5]
  Metabolic stability in liver microsomes % Parent after 2 hrs, Monkey: 63%

## COP(=O)(C1=C(C(=O)NCc2ccncc2)N=C2C=CC(Cl)=CC21)c1cc(C)cc(F)c1 (centres unmarked) [Compound P]
[7]; [10]
  solubility at 3 h: > 1000 µM
[7]; [11]
  solubility at 3 h: 724 µM (≈ 342 µg/mL)
[7]; [12]
  solubility at 3 h: 24 µM (≈ 11.3 µg/mL)
[7]; [13]
  solubility at 3 h: 33.8 µM (≈ 15.9 µg/mL)
[1]
  fraction unbound at 6 h, 1 μM: < 0.005
CYP3A4
  IC50: 770 nM
CYP2D6
  IC50: 2010 nM
CYP2C9
  IC50: 1680 nM
[2]
  Metabolic stability in liver microsomes % Parent after 2 hrs, Human: 3%
[3]
  Metabolic stability in liver microsomes % Parent after 2 hrs, Rat: 0%
[4]
  Metabolic stability in liver microsomes % Parent after 2 hrs, Dog: 20%
[5]
  Metabolic stability in liver microsomes % Parent after 2 hrs, Monkey: 3%
